From PubChem BioAssay AID328 (DTP/NCI, 2004) come the findings set out here.

“And” between values parts separate entries of the source, which are not always exact repeats. Equal values may be shown once. Inconclusive results and toxic doses are left out.

The experiment concerns BDF1 mice, P388 leukemia ip, median survival T/C. Briefly: NCI In Vivo Anticancer Drug Screen. Data for tumor model P388 Leukemia (intraperitoneal) in B6D2F1 (BDF1) mice. Conditions: endpoint: median survival time, higher = longer survival. Summed up:
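Each value expresses how treatment altered survival: treated-mouse outcome over vehicle-mouse outcome, both groups bearing the transplanted tumour.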

The mark [1] stands for this setting: dose: 12.5 mg/kg/injection, schedule: Q04DX003 (ip), vehicle: saline with Tween-80.
Setting [2] is: dose: 25.0 mg/kg/injection, schedule: Q04DX003 (ip), vehicle: saline with Tween-80.

On to `COc1ccccc1CN1CCCN(Cc2ccccc2OC)C1c1ccc(N(CCCl)CCCl)cc1C`, for which the T/C (dose: 65.0 mg/kg/injection, schedule: Q01DX009 (ip), vehicle: Klucel (hydroxypropylcellulose) (HPC)) was 95 % of control and the T/C (dose: 100.0 mg/kg/injection, schedule: Q01DX009 (ip), vehicle: Klucel (hydroxypropylcellulose) (HPC)) was 109 % of control.
`CCCCC[C@H](O)/C=C/[C@@H]1[C@@H](C/C=C\CCCC(=O)O)[C@@H](O)C[C@H]1O`: the T/C reads like this: (dose: 0.25 mg/kg/injection, schedule: Q#A X020 (ip), vehicle: saline) 110 % of control; (dose: 0.5 mg/kg/injection, schedule: Q#A X020 (ip), vehicle: saline) 101 % of control; (dose: 1.0 mg/kg/injection, schedule: Q#A X020 (ip), vehicle: saline) 100 % of control; (dose: 2.5 mg/kg/injection, schedule: Q04DX003 (ip), vehicle: saline with Tween-80) 94 % of control; (dose: 5.0 mg/kg/injection, schedule: Q04DX002 (ip), vehicle: saline) 97 % of control; (dose: 10.0 mg/kg/injection, schedule: Q04DX003 (ip), vehicle: saline with Tween-80) 105 % of control. The T/C runs as follows: (dose: 20.0 mg/kg/injection, schedule: Q04DX002 (ip), vehicle: saline) 105 % of control; (dose: 40.0 mg/kg/injection, schedule: Q04DX002 (ip), vehicle: saline) 105 % of control; (dose: 80.0 mg/kg/injection, schedule: Q04DX002 (ip), vehicle: saline) 97 % of control.
With `CN(C)C(=S)SSC(=S)N(C)C`, the T/C reads like this: (dose: 25.0 mg/kg/injection, schedule: Q04DX003 (ip), vehicle: Klucel (hydroxypropylcellulose) (HPC)) 109 % of control; (dose: 50.0 mg/kg/injection, schedule: Q04DX003 (ip), vehicle: Klucel (hydroxypropylcellulose) (HPC)) 118 % of control; (dose: 100.0 mg/kg/injection, schedule: Q01DX001 (ip), vehicle: Klucel (hydroxypropylcellulose) (HPC)) 100 % of control; (dose: 100.0 mg/kg/injection, schedule: Q04DX003 (ip), vehicle: Klucel (hydroxypropylcellulose) (HPC)) 113 % of control; (dose: 200.0 mg/kg/injection, schedule: Q01DX001 (ip), vehicle: Klucel (hydroxypropylcellulose) (HPC)) 109 % of control; (dose: 400.0 mg/kg/injection, schedule: Q01DX001 (ip), vehicle: Klucel (hydroxypropylcellulose) (HPC)) 113 % of control.
As to `C=Cn1ccnc1C.C=Cn1ccnc1C.CC(=O)CC(C)=O.CC(=O)CC(C)=O.[Co]`, the T/C reads like this: (dose: 12.5 mg/kg/injection, schedule: Q04DX003 (ip), vehicle: saline) 106 % of control; (dose: 25.0 mg/kg/injection, schedule: Q04DX003 (ip), vehicle: saline) 106 % of control; (dose: 50.0 mg/kg/injection, schedule: Q04DX003 (ip), vehicle: saline) 117 % of control.
On to `ClCCc1cnc[nH]1`, for which the T/C by setting is: (dose: 6.25 mg/kg/injection, schedule: Q04DX003 (ip), vehicle: water) 104 % of control; (dose: 12.5 mg/kg/injection, schedule: Q04DX003 (ip), vehicle: water) 108 % of control; (dose: 25.0 mg/kg/injection, schedule: Q04DX003 (ip), vehicle: water) 112 % of control; (dose: 50.0 mg/kg/injection, schedule: Q04DX003 (ip), vehicle: water) 105 % of control; (dose: 100.0 mg/kg/injection, schedule: Q04DX003 (ip), vehicle: water) 98 % of control.
`CCCOC1=C(N2CC2)C(=O)C(OCCC)=C(N2CC2)C1=O`: the T/C (dose: 2.2 mg/kg/injection, schedule: Q04DX003 (ip), vehicle: saline with Tween-80) is 117 % of control; the T/C (dose: 5.55 mg/kg/injection, schedule: Q04DX003 (ip), vehicle: saline with Tween-80) was 200 % of control; the T/C (dose: 7.5 mg/kg/injection, schedule: Q04DX003 (ip), vehicle: saline with Tween-80) was 165 % of control; the T/C (dose: 8.33 mg/kg/injection, schedule: Q04DX003 (ip), vehicle: saline with Tween-80) was 163 % of control and 200 % of control; the T/C under setting [1] was 186 % of control and 200 % of control and 218 % of control; the T/C (dose: 18.7 mg/kg/injection, schedule: Q04DX003 (ip), vehicle: saline with Tween-80) is 245 % of control and 260 % of control. For the same compound, the T/C under setting [2] was 163 % of control.
Turning to `CSC(=S)N/N=C(\C)C1CCCC[N-]1.[I][Zn][I]` (stereo unspecified), the T/C is, setting by setting: (dose: 12.5 mg/kg/injection, schedule: Q01DX009 (ip), vehicle: saline with Tween-80) 109 % of control and 110 % of control and 115 % of control; (dose: 25.0 mg/kg/injection, schedule: Q01DX009 (ip), vehicle: saline with Tween-80) 109 % of control (2×) and 117 % of control; (dose: 100.0 mg/kg/injection, schedule: Q01DX009 (ip), vehicle: saline with Tween-80) 118 % of control.
As for `CCOC(=O)/C(=C/C(C#N)=C/N(C)C)CC`, the T/C (dose: 100.0 mg/kg/injection, schedule: Q01DX001 (ip), vehicle: other) was 100 % of control; the T/C (dose: 200.0 mg/kg/injection, schedule: Q01DX001 (ip), vehicle: other) was 109 % of control; the T/C (dose: 400.0 mg/kg/injection, schedule: Q01DX001 (ip), vehicle: other) is 109 % of control.
Turning to `OC(c1ccccc1)(C1CCNCC1)C1CC1` (stereo unspecified), the T/C (dose: 25.0 mg/kg/injection, schedule: Q01DX001 (ip), vehicle: saline) was 107 % of control; the T/C (dose: 50.0 mg/kg/injection, schedule: Q01DX001 (ip), vehicle: saline) was 107 % of control; the T/C (dose: 100.0 mg/kg/injection, schedule: Q01DX001 (ip), vehicle: saline) was 118 % of control.
With `COc1ccc2c3c(c4cc(OC)c(OC)cc4c2c1)C[C@H]1CCCCN1C3`, the T/C (dose: 0.25 mg/kg/injection, schedule: Q01DX010 (ip), vehicle: saline) is 100 % of control; the T/C (dose: 0.5 mg/kg/injection, schedule: Q01DX010 (ip), vehicle: saline) was 120 % of control; the T/C (dose: 1.0 mg/kg/injection, schedule: Q01DX010 (ip), vehicle: saline) was 120 % of control; the T/C (dose: 2.0 mg/kg/injection, schedule: Q01DX010 (ip), vehicle: saline) is 91 % of control.
Consider `CCCCCCCCCC[N+](C)(C)CCC[N+](C)(C)CCCCCCCCCC`, for which the T/C reads like this: (dose: 0.78 mg/kg/injection, schedule: Q01DX009 (ip), vehicle: saline) 87 % of control; (dose: 1.56 mg/kg/injection, schedule: Q01DX009 (ip), vehicle: saline) 98 % of control; (dose: 3.12 mg/kg/injection, schedule: Q01DX009 (ip), vehicle: saline) 100 % of control; (dose: 3.13 mg/kg/injection, schedule: Q01DX009 (ip), vehicle: saline) 120 % of control; (dose: 6.25 mg/kg/injection, schedule: Q01DX009 (ip), vehicle: saline) 116 % of control and 123 % of control.
For `CCCCCC[N+](CCCCCC)(CCCCCC)CCCCCC`, the T/C was 123 % of control (dose: 3.0 mg/kg/injection, schedule: Q01DX009 (ip), vehicle: saline with Tween-80); 116 % of control and 119 % of control (dose: 6.0 mg/kg/injection, schedule: Q01DX009 (ip), vehicle: saline with Tween-80); 114 % of control (dose: 6.25 mg/kg/injection, schedule: Q01DX009 (ip), vehicle: saline with Tween-80); 108 % of control (dose: 6.25 mg/kg/injection, schedule: Q04DX003 (ip), vehicle: saline with Tween-80); 95 % of control under setting [1]; 113 % of control under setting [2].
Take `COc1cc2c(c(OC)c1OC)-c1ccc(OC)c(=O)cc1[C@@H](NC(=O)c1ccccc1)CC2`: the T/C is, setting by setting: (dose: 0.06 mg/kg/injection, schedule: Q01DX009 (ip), vehicle: saline sonified) 112 % of control; (dose: 0.12 mg/kg/injection, schedule: Q01DX009 (ip), vehicle: saline sonified) 116 % of control; (dose: 0.5 mg/kg/injection, schedule: Q01DX009 (ip), vehicle: saline sonified) 163 % of control; (dose: 1.0 mg/kg/injection, schedule: Q01DX009 (ip), vehicle: saline sonified) 190 % of control; (dose: 2.0 mg/kg/injection, schedule: Q01DX009 (ip), vehicle: saline sonified) 254 % of control and 109 % of control; (dose: 3.3 mg/kg/injection, schedule: Q04DX003 (ip), vehicle: saline) 159 % of control. Further, the T/C reads like this: (dose: 4.0 mg/kg/injection, schedule: Q01DX009 (ip), vehicle: saline sonified) 272 % of control; (dose: 5.0 mg/kg/injection, schedule: Q04DX003 (ip), vehicle: saline) 200 % of control; (dose: 6.0 mg/kg/injection, schedule: Q01DX009 (ip), vehicle: saline sonified) 162 % of control; (dose: 7.5 mg/kg/injection, schedule: Q04DX003 (ip), vehicle: saline) 204 % of control.
